Measured values taken from patent US7687664B2, “Carboxylic acid derivative, a salt thereof or an ester of them, and medicament comprising it” (Eisai R&D Management Co., Ltd., priority 2001, dated 2010).

Key:
Assay in all cases: Transcriptional activity, GAL4-PPAR LBD chimera / PLAP reporter in CV-1 cells
Type in all cases: cell-based
human PPAR α = molecular target: T1, human PPAR α (Homo sapiens, UniProt Q07869); settings: GAL4-PPARα LBD, PLAP activity 24 hours after addition
T1 construct: human PPAR 167-468 (PPAR α); expressed in transfected cells; host or cells: CV-1 (ATCC CCL-70)
T1 sequence (Q07869 167-468): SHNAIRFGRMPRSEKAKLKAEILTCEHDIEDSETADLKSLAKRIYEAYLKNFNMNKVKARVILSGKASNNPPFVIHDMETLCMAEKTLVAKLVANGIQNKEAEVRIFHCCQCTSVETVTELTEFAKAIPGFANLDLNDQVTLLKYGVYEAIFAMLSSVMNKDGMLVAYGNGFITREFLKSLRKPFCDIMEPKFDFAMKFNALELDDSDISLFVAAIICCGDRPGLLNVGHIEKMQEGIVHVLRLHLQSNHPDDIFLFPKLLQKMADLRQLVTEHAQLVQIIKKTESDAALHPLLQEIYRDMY
Excerpt: (§1) A GAL4-PPAR LBD chimera expression vector was constructed by ligating human PPAR 167-468 (PPAR α), 138-440 (NUC-1) and 174-475 (PPARγ) amino acid regions (LBD: Ligand Binding Domain) to a yeast transcriptional factor GAL4 1-147 amino acid region. As the reporter gene, PLAP (Placental Alkaline Phosphatase) was used, and this was ligated downstream of a TK promoter containing a 5-copy GAL4 DNA binding element to construct a vector. As host cells, CV-1 (ATCC CCL-70) was used. That is, CV-1 cells were spread at a density of 5×10^5 cells on a 35-mm dish and cultured in 10% FCS/DMEM for 24 hours, and using FuGENE 6 transfection reagent, the cells were co-transfected with the GAL4-PPAR LBD expression vector and GAL4 DBD-TK-PLAP expression vector. 24 hours after this transfection, the cells were spread again on a 96-well plate at a density of 1×10^4/well and further cultured for 24 hours. After 24 hours, the medium was exchanged with DMEM containing 10% FCS, which was previously treated at 65° C. for inactivating intrinsic alkaline phosphatase, and a test compound was added at an arbitrary concentration. The transcriptional activity was determined in terms of PLAP activity secreted 24 hours after addition of the compound, to calculate EC50.
(§2) The PLAP activity was determined after adding 50 μl assay buffer and 50 μl chemoluminescence substrate to 10 μl culture supernatant and incubating the mixture at room temperature for 1 hour. In this way, transcription activities with respect to PPARα, PPARβ(δ) and PPARγ could be determined.

[1] = molecular target: T2, human PPAR β (NUC-1, PPARβ(δ)) (Homo sapiens, UniProt Q03181); settings: GAL4-PPARβ(δ) (NUC-1) LBD, PLAP activity 24 hours after addition
T2 construct: 138-440 (NUC-1); expressed in transfected cells; host or cells: CV-1 (ATCC CCL-70)
T2 sequence (Q03181 138-440): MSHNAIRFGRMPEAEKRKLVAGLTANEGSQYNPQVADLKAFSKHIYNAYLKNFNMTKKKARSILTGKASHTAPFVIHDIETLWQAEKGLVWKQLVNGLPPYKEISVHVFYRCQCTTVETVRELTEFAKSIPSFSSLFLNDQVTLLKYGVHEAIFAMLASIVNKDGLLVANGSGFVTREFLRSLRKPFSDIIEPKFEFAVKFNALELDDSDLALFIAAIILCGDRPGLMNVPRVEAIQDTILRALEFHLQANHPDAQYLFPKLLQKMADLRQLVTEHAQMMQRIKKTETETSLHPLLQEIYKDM
Excerpt: as §1, §2

human PPAR γ = molecular target: T3, human PPAR γ (Homo sapiens, UniProt P37231); settings: GAL4-PPARγ LBD, PLAP activity 24 hours after addition
T3 construct: 174-475 (PPARγ); expressed in transfected cells; host or cells: CV-1 (ATCC CCL-70)
T3 sequence (P37231 174-475 isoform P37231-2): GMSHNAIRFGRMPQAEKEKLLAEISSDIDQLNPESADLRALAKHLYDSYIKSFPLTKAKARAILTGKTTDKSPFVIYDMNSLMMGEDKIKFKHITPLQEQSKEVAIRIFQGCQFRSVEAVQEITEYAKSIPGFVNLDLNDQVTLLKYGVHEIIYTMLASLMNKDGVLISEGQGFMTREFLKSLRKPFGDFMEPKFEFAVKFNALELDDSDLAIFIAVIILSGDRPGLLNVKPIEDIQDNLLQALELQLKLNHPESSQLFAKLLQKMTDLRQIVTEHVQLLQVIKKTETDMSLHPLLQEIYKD
Excerpt: as §1, §2

COc1ccc(-c2cccc(CC(=O)O)c2)cc1OCC(O)COc1ccc(C(C)(C)C)cc1 (stereo not shown) [Ex 365, {3′-[2-Hydroxy-3-(4-t-butylphenoxy)propoxy]-4′-methoxybiphenyl-3-yl}acetic Acid]
EC50 (human PPAR α): 1560 nM
EC50 [1]: 1140 nM
EC50 (human PPAR γ): 150 nM

COc1ccc(-c2cccc(CC(=O)O)c2)cc1OCC#Cc1cccc(C(F)(F)F)c1 [Ex 375, {3′-[3-(3-Trifluoromethylphenyl)-2-propynyloxy]-4′-methoxybiphenyl-3-yl}acetic Acid]
EC50 (human PPAR α): 653 nM
EC50 [1]: 102 nM
EC50 (human PPAR γ): 1280 nM

COc1ccc(-c2ccc(C)c(C(=O)O)c2)cc1CNC(=O)c1ccc(Cl)cc1Cl [Example 21, 3-(3-{[(2,4-Dichlorobenzoyl)amino]methyl}-4-methoxyphenyl)-6-methylbenzoic Acid]
EC50 (human PPAR α): 45 nM
EC50 [1]: 116 nM
EC50 (human PPAR γ): 43 nM

CCCOc1ccc(C(=O)NCc2cc(-c3cccc(/C=C(\CC)C(=O)O)c3)ccc2OC)c(Cl)c1 [Example 141, (E)-2-Ethyl-3-[3-(3-{[(4-propoxy-2-chlorobenzoyl)amino]methyl}-4-methoxyphenyl)phenyl]-2-propenoic Acid]
EC50 (human PPAR γ): 31 nM

CCCOc1ccc(-c2cc(C(=O)O)ccc2Cl)cc1CNC(=O)c1ccc(C(F)(F)F)cc1F [Example 199, 3-(3-{[(4-Trifluoromethyl-2-fluorobenzoyl)amino]methyl}-4-propoxyphenyl)-4-chlorobenzoic Acid]
EC50 (human PPAR α): 538 nM
EC50 [1]: 0.35 nM
EC50 (human PPAR γ): 136 nM

COc1ccc(-c2cccc(CC(=O)O)c2)cc1CNC(=O)c1ccc(C(F)(F)F)cc1F [Example 220, 3-(3-{[(4-Trifluoromethyl-2-fluorobenzoyl)amino]methyl}-4-methoxyphenyl)-3-phenylacetic Acid]
EC50 (human PPAR α): 750 nM
EC50 [1]: 0.5 nM
EC50 (human PPAR γ): 58 nM

Cc1ccc(-c2ccccc2CNC(=O)c2sc(-c3ccc(Cl)cc3)nc2C)cc1C(=O)O [Example 257, 3-(2-[([2-(4-Chlorophenyl)-4-methyl-1,3-thiazol-5-yl]carbonylamino)methyl]phenyl)-6-methylbenzoic Acid]
EC50 (human PPAR α): 29 nM

COc1ccc(-c2cccc(CC(=O)O)c2)cc1CCOc1ccc(Cl)cc1Cl [Example 263, 3-{3-[2-(2,4-Dichlorophenoxy)ethyl]-4-methoxyphenyl}phenylacetic Acid]
EC50 [1]: 0.48 nM
EC50 (human PPAR γ): 1160 nM

COc1ccc(-c2cccc(CC(=O)O)c2)cc1CCOC(=O)Nc1ccc(C(F)(F)F)cc1 [Example 267, 2-[5-(3-{2-[(4-Trifluoromethylanilinocarbonyl)oxy]ethyl}-4-methoxyphenyl)-3-phenyl]acetic Acid]
EC50 (human PPAR α): 622 nM
EC50 [1]: 18 nM
EC50 (human PPAR γ): 468 nM

CCOc1ccc(-c2cccc(CC(=O)O)c2)cc1CNC(=O)OCc1ccc(CC)cc1 [Example 302, {4′-Ethoxy-3′-[(4-ethylbenzyloxycarbonylamino)methyl]-biphenyl-3-yl}acetic Acid]
EC50 (human PPAR α): 3 nM
EC50 [1]: 74 nM
EC50 (human PPAR γ): 700 nM

COc1ccc(-c2cccc(CC(=O)O)c2)cc1C#CCOc1ccc(C(F)(F)F)cc1 [Example 351, {4′-Methoxy-3′-[3-(4-trifluoromethylphenoxy)1-propynyl]biphenyl-3-yl}acetic Acid]
EC50 (human PPAR α): 1820 nM
EC50 [1]: 160 nM
EC50 (human PPAR γ): 1410 nM

COc1ccc(-c2cccc(CC(=O)O)c2)cc1/C(C)=N/OCc1ccc(C(F)(F)F)cc1 [Example 361, {4′-Methoxy-3′-[1-(4-trifluoromethylbenzyloxyimino)ethyl]-biphenyl-3-yl}acetic Acid]
EC50 (human PPAR α): 719 nM
EC50 [1]: < 0.1 nM
EC50 (human PPAR γ): 654 nM
